Measured values taken from US20190127366A1 (LifeSci Pharmaceuticals, Inc., priority 2015, published 2019).

target: T1, human complement factor D (Homo sapiens, UniProt P00746); experiment: In vitro enzyme inhibition (Z-Lys-SBzl/DTNB absorbance assay); format: biochemical; settings: not given
T1 construct: purchased R&D Systems 1824-SE
Method: The ability of the compounds disclosed herein to inhibit human complement factor D inhibitory activity was quantified according to the 12-step protocol provided below. • 1. Prepare assay buffer: 50 mM Tris/HCl, pH 7.5, 1 M NaCl. • 2. Dilute 10 mM Complement Factor D inhibitor Nafamostat Mesilate (Selleckchem, Catalog #S1386) solution from 10000 μM to 9.77 μM in 100% DMSO, 8 concentrations. Then dilute the serial concentrations of Nafamostat Mesilate 20-fold in assay buffer. • 3. Add 10 μl diluted Nafamostat Mesilate duplicated into each of the inhibitor control well of a 96-well plate (Corning, Catalog #3599). Final concentrations were 50 μM, 25 μM, 12.5 μM, 6.25 μM, 3.125 μM, 0.781 μM, 0.195 μM and 0.049 μM. 0.5% DMSO was in each well finally. • 4. Dilute 20 mM test compounds from 10000 μM to […] in 100% DMSO, 6-fold dilution, 8 concentrations. Then dilute the serial concentrations of test compounds 20-fold in assay buffer. • 5. Add 10 μl diluted test compounds duplicated into the 96-well plate. Final concentrations were 50 μM, 8.33 μM, 1.39 μM, 0.23 μM, 0.0386 μM, 0.0064 μM, 0.0011 μM and 0.0002 μM. 0.5% DMSO was in each well finally. • 6. Dilute 20 mM substrate Z-Lys-SBzl (Bachem, Cat #M-1300) to 200 μM in assay buffer with 200 μM DTNB(Sigma, Catalog #D8130). • 7. Dilute 738 ng/μL Complement Factor D (R&D Systems, Catalog #1824-SE) to 6.25 ng/μL in assay buffer. Add 40 μl diluted Complement Factor D in the 96-well plate. • 8. Positive control well contains Complement Factor D without test compound. Negative control well contains neither Complement Factor D nor test compound. Using assay buffer, bring the total volume of all controls to 50 μl. • 9. Pre-incubate the plate for 5 min at room temperature. • 10. Add 50 μl of diluted substrate/DTNB mixture into each well. Mix the reagents completely by shaking the plate gently for 30 sec. • 11. For kinetic reading: Immediately start measuring absorbance (A405 nm) continuously and record data every 30sec for 60 min. • 12. Data analysis • Inhibition activity of compound was evaluated by IC50. IC50 was calculated according the dose-response curve of compound fitted using GraphPadPrism with “log(inhibitor)-response (variable slope)” equation. • % inhibition was calculated by using following equation:
[formula] • Mean(NC): The average value of the negative control wells' A405 nm values. • Mean(PC): The average value of the positive control wells' A405 nm values.
The ability of the compounds in Table 2 to inhibit human complement factor D inhibitory activity was determined.

T1 sequence (P00746 26-253): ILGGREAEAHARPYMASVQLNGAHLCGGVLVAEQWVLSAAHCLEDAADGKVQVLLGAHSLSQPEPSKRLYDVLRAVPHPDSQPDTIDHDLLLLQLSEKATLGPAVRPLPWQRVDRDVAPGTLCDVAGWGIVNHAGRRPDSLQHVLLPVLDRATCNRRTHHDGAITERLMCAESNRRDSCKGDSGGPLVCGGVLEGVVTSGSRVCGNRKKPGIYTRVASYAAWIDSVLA

| Structure (SMILES) | IC50 [µM] |
| --- | --- |
| CC(=O)N1CCN(C(=O)Cn2nc(C(N)=O)c3ccccc32)[C@H](C(=O)Nc2cccc(C(F)(F)F)n2)C1 [Example 30, (S)-1-(2-(4-acetyl-2-((6-(trifluoromethyl)pyridin-2-yl)carbamoyl)piperazin-1-yl)-2-oxoethyl)-1H-indazole-3-carboxamide] | 1 to 10 |

same assay, conditions: Complement Factor D (R&D Systems), substrate Z-Lys-SBzl, A405 nm; read-out: CFD IC50

| Structure (SMILES) | IC50 [µM] |
| --- | --- |
| NC(=O)c1nn(CC(=O)N2CCNC[C@H]2C(=O)Nc2cccc(C(F)(F)F)n2)c2ccccc12 [Example 29, (S)-1-(2-oxo-2-(2-((6-(trifluoromethyl)pyridin-2-yl)carbamoyl)piperazin-1-yl)ethyl)-1H-indazole-3-carboxamide] | > 10 |
| NC(=O)c1nn(CC(=O)N2[C@@H]3CC[C@@H](C3)[C@H]2C(=O)Nc2cccc(Cl)c2F)c2cnccc12 [Example 36, 1-(2-((1R,3S,4S)-3-((3-chloro-2-fluorophenyl)carbamoyl)-2-azabicyclo[2.2.1]heptan-2-yl)-2-oxoethyl)-1H-pyrazolo[3,4-c]pyridine-3-carboxamide] | 1 to 10 |
| NC(=O)c1nn(CC(=O)N2[C@@H]3CC[C@@H](C3)[C@H]2C(=O)Nc2cccc(OC(F)(F)F)c2F)c2ccccc12 [Example 41, 1-(2-((1R,3S,4S)-3-((2-fluoro-3-(trifluoromethoxy)phenyl)carbamoyl)-2-azabicyclo[2.2.1]heptan-2-yl)-2-oxoethyl)-1H-indazole-3-carboxamide] | 1 to 10 |
| NC(=O)c1nn(CC(=O)N2[C@@H]3CC[C@@H](C3)[C@H]2C(=O)Nc2cccc(OC(F)(F)F)c2F)c2cnccc12 [Example 42, 1-(2-((1R,3S,4S)-3-((2-fluoro-3-(trifluoromethoxy)phenyl)carbamoyl)-2-azabicyclo[2.2.1]heptan-2-yl)-2-oxoethyl)-1H-pyrazolo[3,4-c]pyridine-3-carboxamide] | 1 to 10 |
| NC(=O)c1nn(CC(=O)N2[C@@H]3CC[C@@H](C3)[C@H]2C(=O)Nc2cccc(-c3ccccc3Cl)n2)c2ccccc12 [Example 44, 1-(2-((1R,3S,4S)-3-((6-(2-chlorophenyl)pyridin-2-yl)carbamoyl)-2-azabicyclo[2.2.1]heptan-2-yl)-2-oxoethyl)-1H-indazole-3-carboxamide] | 0.1 to 1 |
| NC(=O)c1nn(CC(=O)N2[C@@H]3CC[C@@H](C3)[C@H]2C(=O)Nc2cnc3ccccc3n2)c2ccccc12 [Example 45, 1-(2-oxo-2-((1R,3S,4S)-3-(quinoxalin-2-ylcarbamoyl)-2-azabicyclo[2.2.1]heptan-2-yl)ethyl)-1H-indazole-3-carboxamide] | 1 to 10 |
| NC(=O)c1nn(CC(=O)N2[C@@H]3CC[C@@H](C3)[C@H]2C(=O)Nc2cccc(-c3ccccc3F)n2)c2ccccc12 [Example 46, 1-(2-((1R,3S,4S)-3-((6-(2-fluorophenyl)pyridin-2-yl)carbamoyl)-2-azabicyclo[2.2.1]heptan-2-yl)-2-oxoethyl)-1H-indazole-3-carboxamide] | > 10 |
| NC(=O)c1nn(CC(=O)N2[C@@H]3CC[C@@H](C3)[C@H]2C(=O)NCc2cnc3[nH]cc(Cl)c3c2)c2ccccc12 [Example 48, 1-(2-((1R,3S,4S)-3-(((3-chloro-1H-pyrrolo[2,3-b]pyridin-5-yl)methyl)carbamoyl)-2-azabicyclo[2.2.1]heptan-2-yl)-2-oxoethyl)-1H-indazole-3-carboxamide] | > 10 |
| N#Cc1cccc(NC(=O)[C@@H]2[C@H]3CC[C@H](C3)N2C(=O)Cn2nc(C(N)=O)c3ccccc32)n1 [Example 49, 1-(2-((1R,3S,4S)-3-((6-cyanopyridin-2-yl)carbamoyl)-2-azabicyclo[2.2.1]heptan-2-yl)-2-oxoethyl)-1H-indazole-3-carboxamide] | 1 to 10 |
| COc1cccc(NC(=O)[C@@H]2[C@H]3CC[C@H](C3)N2C(=O)Cn2nc(C(N)=O)c3ccccc32)n1 [Example 50, 1-(2-((1R,3S,4S)-3-((6-methoxypyridin-2-yl)carbamoyl)-2-azabicyclo[2.2.1]heptan-2-yl)-2-oxoethyl)-1H-indazole-3-carboxamide] | 1 to 10 |
| NC(=O)c1nn(CC(=O)N2[C@@H]3CC[C@@H](C3)[C@H]2C(=O)Nc2cc(Cl)ccn2)c2ccccc12 [Example 51, 1-(2-((1R,3S,4S)-3-((4-chloropyridin-2-yl)carbamoyl)-2-azabicyclo[2.2.1]heptan-2-yl)-2-oxoethyl)-1H-indazole-3-carboxamide] | 1 to 10 |
| NC(=O)c1nn(CC(=O)N2[C@@H]3CC[C@@H](C3)[C@H]2C(=O)NCc2cccc(Cl)n2)c2ccccc12 [Example 52, 1-(2-((1R,3S,4S)-3-(((6-chloropyridin-2-yl)methyl)carbamoyl)-2-azabicyclo[2.2.1]heptan-2-yl)-2-oxoethyl)-1H-indazole-3-carboxamide] | > 10 |
| NC(=O)c1nn(CC(=O)N2[C@@H]3CC[C@@H](C3)[C@H]2C(=O)Nc2cccc(F)n2)c2ccccc12 [Example 53, 1-(2-((1R,3S,4S)-3-((6-fluoropyridin-2-yl)carbamoyl)-2-azabicyclo[2.2.1]heptan-2-yl)-2-oxoethyl)-1H-indazole-3-carboxamide] | 1 to 10 |
| NC(=O)c1nn(CC(=O)N2[C@@H]3CC[C@@H](C3)[C@H]2C(=O)Nc2ncccc2Cl)c2ccccc12 [Example 54, 1-(2-((1R,3S,4S)-3-((3-chloropyridin-2-yl)carbamoyl)-2-azabicyclo[2.2.1]heptan-2-yl)-2-oxoethyl)-1H-indazole-3-carboxamide] | > 10 |

The remaining lines, values ahead:

| IC50 [µM] | Structure (SMILES) |
| --- | --- |
| 1 to 10 | CN1CCN(C(=O)Cn2nc(C(N)=O)c3ccccc32)[C@H](C(=O)Nc2cccc(Cl)n2)C1 [Example 28, (S)-1-(2-(2-((6-chloropyridin-2-yl)carbamoyl)-4-methylpiperazin-1-yl)-2-oxoethyl)-1H-indazole-3-carboxamide] |
| 0.1 to 1 | NC(=O)c1nn(CC(=O)N2CCCCC[C@H]2C(=O)NCc2cccc(Cl)c2F)c2ccccc12 [Example 31, (S)-1-(2-(2-((3-chloro-2-fluorobenzyl)carbamoyl)azepan-1-yl)-2-oxoethyl)-1H-indazole-3-carboxamide] |
| 1 to 10 | NC(=O)c1nn(CC(=O)N2CCCCC[C@H]2C(=O)Nc2cccc(Cl)c2F)c2ccccc12 [Example 32, (S)-1-(2-(2-((3-chloro-2-fluorophenyl)carbamoyl)azepan-1-yl)-2-oxoethyl)-1H-indazole-3-carboxamide] |
| > 10 | NC(=O)c1nn(CC(=O)N2CCCNCC2C(=O)NCc2cccc(Cl)c2F)c2ccccc12 (centres unmarked) [Example 33, 1-(2-(2-((3-chloro-2-fluorobenzyl)carbamoyl)-1,4-diazepan-1-yl)-2-oxoethyl)-1H-indazole-3-carboxamide] |
| > 10 | CC(=O)N1CCCN(C(=O)Cn2nc(C(N)=O)c3ccccc32)C(C(=O)NCc2cccc(Cl)c2F)C1 (centres unmarked) [Example 34, 1-(2-(4-acetyl-2-((3-chloro-2-fluorobenzyl)carbamoyl)-1,4-diazepan-1-yl)-2-oxoethyl)-1H-indazole-3-carboxamide] |
| 1 to 10 | NC(=O)c1nn(CC(=O)N2CCNCCC2C(=O)NCc2cccc(Cl)c2F)c2ccccc12 (centres unmarked) [Example 35, 1-(2-(7-((3-chloro-2-fluorobenzyl)carbamoyl)-1,4-diazepan-1-yl)-2-oxoethyl)-1H-indazole-3-carboxamide 2,2,2-trifluoroacetate] |
| 0.1 to 1 | NC(=O)c1nn(CC(=O)N2[C@@H]3CC[C@@H](C3)[C@H]2C(=O)NCc2cccc(Cl)c2F)c2cnccc12 [Example 39, 1-(2-((1R,3S,4S)-3-((3-chloro-2-fluorobenzyl)carbamoyl)-2-azabicyclo[2.2.1]heptan-2-yl)-2-oxoethyl)-1H-pyrazolo[3,4-c]pyridine-3-carboxamide] |
| > 10 | NC(=O)c1nn(CC(=O)N2[C@@H]3CC[C@@H](C3)[C@H]2C(=O)NCc2ccc3[nH]cc(Cl)c3c2F)c2ccccc12 [Example 47, 1-(2-((1R,3S,4S)-3-(((3-chloro-4-fluoro-1H-indol-5-yl)methyl)carbamoyl)-2-azabicyclo[2.2.1]heptan-2-yl)-2-oxoethyl)-1H-indazole-3-carboxamide] |
